pIC50, pKd, pKi: −log10 of the molar value.
How the values were obtained:
[1] = biological target: T1, Replicase polyprotein 1ab (Severe acute respiratory syndrome coronavirus 2, UniProt P0DTD1); assay: Inhibition of SARS-CoV-2 wild type PLpro extracted from Escherichia coli Rosetta 2(DE3) cells by fluorescence based analysis
[2] = biological target: T1, Replicase polyprotein 1ab; assay: Inhibition of SARS-CoV-2 PLpro using Ubiquitin-AMC as substrate by enzymatic assay
[3] = biological target: T1, Replicase polyprotein 1ab; assay: Inhibition of SARS-CoV-2 papain-like protease (PLpro) by enzymatic assay
[4] = biological target: T1, Replicase polyprotein 1ab; assay: Binding affinity to SARS-CoV-2 Main protease assessed as inhibition constant by SPR analysis
[5] = biological target: T1, Replicase polyprotein 1ab; assay: Inhibition of SARS-CoV-2 papain-like protease (PLpro) by FRET analysis
[6] = biological target: T1, Replicase polyprotein 1ab; assay: Inhibition of C-terminal His-tagged SARS-CoV-2 papain-like protease (PLpro) (1564 to 1876 residues) extracted from Escherichia coli BL21 (DE3) cells using Dabcyl-KTSAVLQ/SGFRKME as substrate incubated for 60 mins by FRET assay
[7] = biological target: T1, Replicase polyprotein 1ab; assay: Inhibition of SARS-CoV-2 wild type PLpro (1563 to 1878 residues) extracted from Escherichia coli Rosetta 2 (DE3) cells by Fluorescence polarization assay
[8] = biological target: T1, Replicase polyprotein 1ab; assay: Inhibition of N-terminal 6-His-tagged SARS-CoV-2 PLpro BetaCoV/Wuhan/WIV04/2019 (1524 to 1883 residues) extracted from Escherichia coli BL21 (DE3) cells using Dabcyl-KTSAVLQ/SGFRKME as substrate pretreated for 30 mins followed by substrate addition measured for 1 hr by TR-FRET analysis
[9] = biological target: T1, Replicase polyprotein 1ab; assay: Inhibition of His-tagged SARS-CoV-2 papain-like protease (PLpro) incubated for 30 mins by FRET assay
[10] = biological target: T1, Replicase polyprotein 1ab; assay: Inhibition of N-terminal 6His-tagged SARS-CoV-2 wild type PLpro extracted from Escherichia coli BL21 (DE3) cells incubated for 60 mins by FRET assay
[11] = biological target: T1, Replicase polyprotein 1ab; assay: Inhibition of SARS-CoV-2 3CL protease by FRET assay
[12] = biological target: T1, Replicase polyprotein 1ab; assay: Binding affinity to SARS-CoV-2 3CL protease assessed as dissociation constant by SPR analysis
[13] = biological target: T1, Replicase polyprotein 1ab; assay: Binding affinity to SARS-CoV-2 3CL protease extracted from Escherichia coli BL21 (DE3) Rosetta cells assessed as dissociation constant
[14] = biological target: T1, Replicase polyprotein 1ab; assay: Inhibition of SARS-CoV-2 3CL protease extracted from Escherichia coli BL21 (DE3) Rosetta cells using DabcylKNSTLQSGLRKE-Edan as substrate preincubated for 60 mins followed by substrate addition and measured after 20 mins by FRET assay

Structure (SMILES): C[C@H](c1cccc2ccccc12)N1CCC(C(=O)NCc2cc(F)cc(NC(=O)N3CCN(C)CC3)c2)CC1
- pIC50 [1]: 6.00

Structure (SMILES): Cc1ccc(N)cc1CN[C@H](C)c1cccc2ccccc12
- pIC50 [2]: 4.39

Structure (SMILES): CCn1ccc(-c2cc(-c3cnn(CCOC)c3)cc([C@@H](C)NC(=O)c3cc(OCCN(C)C)ccc3C)c2)n1
- pIC50 [3]: 6.80
- pKi [4]: 7.52

Structure (SMILES): CC(=O)Nc1ccc(C)c(C(=O)NC(C)c2cccc3ccccc23)c1 (stereo not drawn)
- pIC50 [2]: 4.96

Structure (SMILES): Cc1ccc(OCCN(C)C)cc1C(=O)N[C@H](C)c1cc(-c2cnn(C)c2)cc(-c2cnn(C)c2)c1
- pKi [4]: 7.52

Structure (SMILES): Cc1ccc(OCCN(C)C)cc1C(=O)N[C@H](C)c1cc(-c2cccs2)cc(-c2cccs2)c1
- pIC50 [5]: 7.22
- pKi [4]: 8.00

Structure (SMILES): C[C@H](c1cccc2ccccc12)N(C)Cc1ccc2cccc(O)c2n1
- pIC50 [6]: < 4.70

Structure (SMILES): COc1cc(CNC(=O)C2CC3(C2)CN([C@H](C)c2cccc4ccccc24)C3)ccn1
- pIC50 [7]: 5.27

Structure (SMILES): C[C@H](c1cccc2ccccc12)N1CCC(C(=O)NCc2ccc(S(N)(=O)=O)cc2)CC1
- pIC50 [8]: 6.22

Structure (SMILES): C[C@H](c1cccc2ccccc12)N(C)Cc1ccc(OCC(N)=O)cc1
- pIC50 [9]: 5.55

Structure (SMILES): COc1cc(CNC(=O)C2CCN(C(C)c3cccc4ccccc34)CC2)ccn1 (racemic)
- pIC50 [7]: 5.96

Structure (SMILES): CCOc1ccc2ccccc2c1C(C)N1CCC(C(=O)NCc2ccnc(OC)c2)CC1 (racemic)
- pIC50 [10]: < 4.01

Structure (SMILES): COc1cc(CNC(=O)C2CN(C(C)c3cccc4ccccc34)C2)ccn1 (racemic)
- pIC50 [7]: 4.56

Structure (SMILES): CCC(C(=O)Nc1cc(NC2CCNCC2)ccc1C)n1cc(Br)cc2nc(SCc3ccc(F)cc3)nc1-2 (racemic)
- pIC50 [11]: 7.30
- pKd [12]: 6.77

Structure (SMILES): CCC(C(=O)Nc1cc(NC2CCNC2)ccc1C)n1cccc2nc(SCc3ccc(F)cc3)nc1-2 (racemic)
- pKd [12]: 6.60

Structure (SMILES): CCC(C(=O)Nc1cc(NC2CNC2)ccc1C)n1cc(Cl)cc2nc(SCc3ccc(F)cc3)nc1-2 (racemic)
- pIC50 [11]: 7.05
- pKd [12]: 7.00

Structure (SMILES): CCC(C(=O)Nc1cc(NC2CCNC2)ccc1C)n1cc(Cl)cc2nc(SCc3ccc(F)cc3)nc1-2 (racemic)
- pIC50 [11]: 7.15
- pKd [12]: 7.00

Structure (SMILES): CCC(C(=O)Nc1cc(NC2CNC2)ccc1C)n1cc(Br)cc2nc(SCc3ccc(F)cc3)nc1-2 (racemic)
- pIC50 [11]: 7.15
- pKd [12]: 7.00

Structure (SMILES): COc1cc(CNC(=O)C2CCN(C(C)c3c(OC)ccc4ccccc34)CC2)ccn1 (racemic)
- pIC50 [10]: < 4.01

Structure (SMILES): CCC(C(=O)Nc1cc(NC2COC2)ccc1C)n1cc(F)cc2nc(SCc3ccc(F)cc3)nc1-2 (racemic)
- pKd [13]: 6.40
- pIC50 [14]: 6.40

Structure (SMILES): COc1cc(CNC(=O)C2CCN(C(C)c3c(C)sc4ccccc34)CC2)ccn1 (racemic)
- pIC50 [10]: < 4.01

Structure (SMILES): CCC(C(=O)Nc1cc(NC2COC2)ccc1C)n1cccc2nc(SCc3ccc(F)cc3)nc1-2 (racemic)
- pIC50 [14]: 6.52

Structure (SMILES): CCC(C(=O)Nc1cc(NC2CNC2)ccc1C)n1cc(F)cc2nc(SCc3ccc(F)cc3)nc1-2 (racemic)
- pIC50 [11]: 6.70
- pKd [12]: 6.57

Structure (SMILES): CCC(C(=O)Nc1cc(NC2CCOC2)ccc1C)n1cc(Br)cc2nc(SCc3ccc(F)cc3)nc1-2 (racemic)
- pKd [13]: 5.85
- pIC50 [14]: 6.30

Reference: ChEMBL document CHEMBL6092147, “Design of inhibitors of SARS-CoV-2 papain-like protease deriving from GRL0617: Structure-activity relationships” (Bioorg Med Chem, 2024)
